Test: Example 2.1 rhamnolipid precipitation, filtration, centrifugation: lanthanum
Details: for Treatment 2: Rhamnolipid and Filtration Cf / Treatment 3: Rhamnolipid and Centrifugation Cc / Treatment 1: Rhamnolipid Only Cr: lanthanum concentration after treatment; for Treatment 1: Rhamnolipid Only (Rr) efficiency of removal / Treatment 2: Rhamnolipid and Filtration (Rf) efficiency of removal / Treatment 3: Rhamnolipid and Centrifugation (Rc) efficiency of removal: lanthanum
Method in brief: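 Metal nitrate solutions (5 mM stock) mixed with pH 6.9 glycolipid solution (10 mM stock) at glycolipid:metal molar ratios 0:1, 2:1, 5:1, 10:1, overnight (16–24 h), in triplicate. Remaining metal measured by ICP-MS in vortexed whole sample, 0.45 μm filtrate, or supernatant after 10,000 RCF, 15 min.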

## CCCCCCCCCC(CC(=O)O)OC(=O)CC(CCCCCCCCC)OC1O[C@@H](C)[C@H](O)[C@@H](O)[C@H]1O (stereo partly drawn) [Rha C12C12, rhamnosyl-β-hydroxydodecanoyl-62-hydroxydodecanoate]
Molar ratio 2 to 1
  Treatment 2: Rhamnolipid and Filtration Cf: 0.119 ± 0.007 mmol/L
  Treatment 3: Rhamnolipid and Centrifugation Cc: 0.164 ± 0.013 mmol/L
  Treatment 1: Rhamnolipid Only (Rr) efficiency of removal: (31.5%)
  Treatment 2: Rhamnolipid and Filtration (Rf) efficiency of removal: (55.7%)
  Treatment 3: Rhamnolipid and Centrifugation (Rc) efficiency of removal: (38.7%)
Molar ratio 5 to 1
  Treatment 1: Rhamnolipid Only Cr: 0.197 ± 0.006 mmol/L
  Treatment 2: Rhamnolipid and Filtration Cf: 0.044 ± 0.009 mmol/L
  Treatment 3: Rhamnolipid and Centrifugation Cc: 0.074 ± 0.003 mmol/L
  Treatment 1: Rhamnolipid Only (Rr) efficiency of removal: (26.4%)
  Treatment 2: Rhamnolipid and Filtration (Rf) efficiency of removal: (83.7%)
  Treatment 3: Rhamnolipid and Centrifugation (Rc) efficiency of removal: (72.4%)
Molar ratio 10 to 1
  Treatment 1: Rhamnolipid Only Cr: 0.263 ± 0.007 mmol/L
  Treatment 2: Rhamnolipid and Filtration Cf: 0.035 ± 0.001 mmol/L
  Treatment 3: Rhamnolipid and Centrifugation Cc: 0.057 ± 0.004 mmol/L
  Treatment 1: Rhamnolipid Only (Rr) efficiency of removal: (2.0%)
  Treatment 2: Rhamnolipid and Filtration (Rf) efficiency of removal: (86.9%)
  Treatment 3: Rhamnolipid and Centrifugation (Rc) efficiency of removal: (78.7%)
Molar ratio rhamnolipid:lanthanum 2 to 1
  Treatment 1: Rhamnolipid Only Cr: 0.184 ± 0.014 mmol/L

Reference: patent publication US20240182513A1, “SEPARATION OF METAL IONS FROM A SAMPLE USING GLYCOLIPIDS” (ARIZONA BOARD OF REGENTS ON BEHALF OF THE UNIVERSITY OF …, priority 2021, published 2024)
